The record followed here is patent US11033641B2, “Radiolabelled mGluR2/3 pet ligands” (Janssen Pharmaceutica NV, priority 2015, dated 2021).

This series deals with mGluR2/3. Kind of series: microPET scan, baseline and after compound A pretreatment. It is filed as in vivo. To be noted: SD rats. How it is done:
Data were acquired in a 128×128×95 matrix with a pixel width of 0.475 mm and a slice thickness of 0.796 mm. During PET imaging, rats were kept under gas anesthesia (2.5% isoflurane in oxygen at a flow rate of 1 l/min), and their body temperature was maintained between 36.5 and 37° C. using a heating pad. PET data were analyzed using Pmod software version 3.2 (Pmod, Zurich Switzerland).
Sprague-Dawley rats obtained from Harlan (the Netherlands), were housed in groups of four to six per cage until treatment. They were kept at a constant temperature of 21° C. and at a 12-h light/dark cycle, in which lights were switched on at 8:00 a.m. Animals had unrestricted access to food (Teklad Global 16% Protein Rodent Diet, Harlan, Madison, Wis., USA) and water. All animal experiments were performed in compliance with Belgium laws on animal experimentation and after approval by the local animal ethics committee.
All pretreatment solutions were 1 mg/mL solutions in 20% β-cyclodextrine in saline with a pH ranging between 6 and 8, and sterile filtered over a Millex GV filter prior to use.
For the baseline scan, 36-43 MBq of [^18F]-1 was injected in 3 SD rats weighing 229-251 g in the tail vein, and scanned simultaneously during a 90 min dynamic PET scan. For the pretreatment scan using compound A (a NAM compound, selective for mGlu2/3 (˜20 fold selective for 2 over 3) vs other mGluRs), the same animals were injected with 10 mg/kg compound A s.c. 60 minutes prior to injection of 38-37 MBq [^18F]-1 in the tail vein, and scanned simultaneously during a 90 minutes dynamic PET scan.
For the baseline scan, 39-49 MBq of [^18F]-2 was injected in 3 SD rats weighing 301-310 g in a tail vein, and scanned simultaneously during a 90-min dynamic PET scan. For the pretreatment scan using compound A, the same animals were injected with 10 mg/kg compound A s.c. 60 min prior to injection of 46-50 MBq [^18F]-2 in the tail vein, and scanned simultaneously during a 90 min dynamic PET scan.

As to `C[C@H]1CN(c2ccc(C(F)(F)F)cc2)C(=O)c2c(C#Cc3cnc(N)cc3C[18F])cnn21` [Compound 1], the “Brain uptake after pretreatment with compound A” value (10 mg/kg compound A s.c. 60 min before tracer) is “uptake was reduced after pretreatment with compound A”. Besides, the “Brain uptake in PET scan, in words” value (90 min dynamic PET scan) is “high brain uptake”. Also, the “mGluR2/3 specificity of binding in vivo” value (PET, baseline vs compound A pretreatment) is listed as “good mGluR2/3 specificity”.
